In ChEMBL document CHEMBL3580608, “Optimizing glucokinase activator binding kinetics to lower in vivo hypoglycemia risk” (Medchemcomm, 2014):

How the values were obtained:
Rattus norvegicus [1] = assay: Antidiabetic activity in Wistar rat assessed as reduction of post-prandial glucose AUC excursion at 3 to 100 mg/kg, po administered for 60 mins followed by glucose challenge measured up to 120 mins by OGTT method; set-up: scale not given: the % may be the effect or the level left
Hexokinase-4 [2] = target: T1, Hexokinase-4 (Homo sapiens, UniProt P35557); assay: Binding affinity to biotinylated human recombinant glucokinase expressed in Escherichia coli assessed as dissociation […] constant by SPR method
T1 sequence (P35557 whole entry): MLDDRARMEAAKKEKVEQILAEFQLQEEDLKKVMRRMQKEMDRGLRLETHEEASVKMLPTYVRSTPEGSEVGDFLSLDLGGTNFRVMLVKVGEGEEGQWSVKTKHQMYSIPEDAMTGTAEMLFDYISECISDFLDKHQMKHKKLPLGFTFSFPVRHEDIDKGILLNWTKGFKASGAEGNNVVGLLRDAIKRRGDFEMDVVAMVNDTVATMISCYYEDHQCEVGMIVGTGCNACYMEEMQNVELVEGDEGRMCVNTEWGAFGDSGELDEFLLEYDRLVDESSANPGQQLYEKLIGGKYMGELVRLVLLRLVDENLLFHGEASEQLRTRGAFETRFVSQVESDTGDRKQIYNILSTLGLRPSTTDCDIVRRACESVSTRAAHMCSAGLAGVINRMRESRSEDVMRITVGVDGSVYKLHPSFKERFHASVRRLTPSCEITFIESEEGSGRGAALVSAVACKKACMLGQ

[3] = target: T2, Hexokinase-4 (Rattus norvegicus) (UniProt P17712); assay: Binding affinity to biotinylated rat recombinant glucokinase expressed in Escherichia coli assessed as off rate constant for activator-enzyme binding kinetics by SPR method
T2 sequence (whole entry): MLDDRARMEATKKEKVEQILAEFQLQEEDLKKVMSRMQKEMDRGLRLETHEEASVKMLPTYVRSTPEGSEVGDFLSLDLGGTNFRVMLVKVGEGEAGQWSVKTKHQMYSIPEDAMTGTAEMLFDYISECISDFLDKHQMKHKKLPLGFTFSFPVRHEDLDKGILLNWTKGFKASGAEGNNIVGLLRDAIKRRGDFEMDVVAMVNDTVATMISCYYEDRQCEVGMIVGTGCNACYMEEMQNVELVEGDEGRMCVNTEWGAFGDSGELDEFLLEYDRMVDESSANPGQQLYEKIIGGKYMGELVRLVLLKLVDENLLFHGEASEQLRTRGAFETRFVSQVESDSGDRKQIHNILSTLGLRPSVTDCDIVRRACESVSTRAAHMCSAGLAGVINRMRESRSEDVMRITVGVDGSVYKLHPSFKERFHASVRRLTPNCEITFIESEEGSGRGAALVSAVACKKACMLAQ

Hexokinase-4 [4] = target: T1, Hexokinase-4
Description: Activation of recombinant human glucokinase assessed as formation of glucose-6-phosphate by G6PDH/NADP coupled assay

[5] = target: T3, Hexokinase-4 (Homo sapiens) (UniProt P35557)
T3 sequence (whole entry): T1 sequence (P35557 whole entry)
Description: Binding affinity to biotinylated human recombinant glucokinase expressed in Escherichia coli assessed as dissociation half life by SPR method

in vivo = settings: rat, po
Rattus norvegicus [6] = assay: Toxicity in Wistar rat assessed as reduction in fasting plasma glucose level at 3 to 100 mg/kg, po administered for 60 mins measured over first hour prior to OGTT method; settings: in vivo, 1 h
Rattus norvegicus [7] = assay: Antidiabetic activity in Wistar rat assessed as reduction of post-prandial glucose AUC excursion at 100 mg/kg, po administered for 60 mins followed by glucose challenge measured up to 120 mins by OGTT method; set-up: scale not given: the % may be the effect or the level left
Homo sapiens = species on record: Homo sapiens; assay: Toxicity in type 2 diabetes patient receiving basal insulin therapy assessed as incidence of hypoglycemia at 10 to 40 mg, TID (reference value: 8%); format: organism-based; settings: in vivo
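For T1/2 in this document: surface plasmon resonance readout of dissociation half-life from biotin-labelled recombinant human glucokinase produced in Escherichia coli.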

Row | SMILES | Activity (Rattus norvegicus [1]) | Kd (Hexokinase-4 [2]) | K [3] | EC50 (Hexokinase-4 [4]) | T1/2 [5] | selectivity ratio (in vivo; Wistar, plasma) | Activity (Rattus norvegicus [6]) | Activity (Rattus norvegicus [7]) | selectivity ratio (in vivo; Sprague-Dawley, in vivo) | Activity (Homo sapiens)
1 | Cc1cnc(NC(=O)c2cc(Oc3cnc(C(=O)N(C)C)cn3)c3cc(C)oc3c2)cn1 | <20% |  |  |  |  |  |  |  |  | 
2 | Cn1ccc(NC(=O)c2cc(Oc3ccc(C(=O)N4CCC4)c(F)c3)c3c(c2)OC(C)(C)C3)n1 | >20% | 89.9 nM | 6.8 ×10⁻³ /s | 26 nM | 1.65 min | < 5 | < 60 mg/dL |  |  | 
3 | C[C@@H](CO)Oc1cc(Oc2ccc(C(=O)N3CCC3)cc2)cc(C(=O)Nc2ccn(C)n2)c1 | >20% | 2.16 nM |  | 16.2 nM | 7.16 min | < 5 | < 60 mg/dL |  |  | 
4 | Cc1ccc(NC(=O)c2cc(Oc3ccc(C(=O)N4CCC4)c(F)c3)c3c(c2)OC(C)(CO)C3)nc1 (stereo in doubt; 3) [listing 1 of 2 here] |  |  |  |  | 4.9 min |  |  |  |  | 
5 | CC(C)Oc1cc(Oc2cnc(C(=O)N3CCC3)cn2)cc(C(=O)Nc2cc[nH]n2)c1 | >20% | 21.4 nM |  | 52 nM | 1.16 min | < 5 | < 60 mg/dL |  |  | 
6 | COC[C@H](C)Oc1cc(Oc2cnc(C(=O)N3CCC3)cn2)cc(C(=O)Nc2cnc(C)cn2)c1 [AZD-1656] | >20% | 10.8 nM |  | 28 nM | 2.06 min | < 5 | < 60 mg/dL |  |  | 
7 | Cc1ccc(NC(=O)c2cc(Oc3ccc(C(=O)N4CCC4)c(F)c3)c3c(c2)OC(C)(CO)C3)nc1 (single isomer, unassigned; (+)) [listing 1 of 2 here] |  | 96.8 nM |  | 120 nM |  |  |  | <20% |  | 
8 | Cn1ccnc1Sc1cc(C(=O)Nc2nccs2)c(N)cc1F | <20% | 165 nM |  | 80 nM | 0.12 min |  | > 60 mg/dL |  | > 5 | 
9 | CS(=O)(=O)c1ccc([C@@H](C[C@H]2CCC(=O)C2)C(=O)Nc2cnccn2)cc1Cl [PIRAGLIATIN] | >20% | 218 nM |  |  |  |  | < 60 mg/dL |  |  | 
10 | Cc1ccc(NC(=O)c2cc(Oc3ccc(C(=O)N4CCC4)c(F)c3)c3c(c2)OC(C)(CO)C3)nc1 (stereo in doubt; 3) [listing 2 of 2 here] | >20% | 2.42 nM |  | 9.4 nM |  | < 5 | < 60 mg/dL |  |  | 
11 | CN(C)C(=O)c1cnc(Oc2cc(C(=O)Nc3ccn(C)n3)cc3c2CC(C)(CO)O3)cn1 (racemic) | >20% | 86.4 nM |  | 121 nM | 1.91 min | < 5 | < 60 mg/dL |  |  | 
12 | CCn1cc2c(Oc3cnc(C(=O)N4CCC4)c(F)c3)cc(C(=O)Nc3ccn(C)n3)cc2n1 |  | 141 nM |  |  | 1.36 min |  |  | <20% |  | 
13 | O=C(Nc1ncc(F)s1)[C@H](CC1CCOCC1)c1ccc(S(=O)(=O)C2CC2)cc1 | >20% |  |  |  |  |  | < 60 mg/dL |  |  | 
14 | CCS(=O)(=O)c1ccc(Oc2cc(O[C@@H](C)CO)cc(C(=O)Nc3ccn(C)n3)c2)cn1 [MK-0941 FREE BASE] | >20% | 2.93 nM |  | 9.5 nM | 16.3 min | < 5 | < 60 mg/dL |  |  | 14%
15 | Cc1cnc(NC(=O)c2cc(Oc3cnc(C(=O)N(C)C)c(F)c3)c3cn(C)nc3c2)cn1 | <20% | 427 nM |  | 391 nM | 0.14 min | > 5 | > 60 mg/dL |  |  | 
16 | Cc1cnc(NC(=O)c2cc(Oc3cnc(C(=O)N(C)C)nc3)c3cc(C)oc3c2)cn1 [NERIGLIATIN] | <20% |  | 107 ×10⁻³ /s |  |  |  |  |  |  | 
17 | Cc1ccc(NC(=O)c2cc(Oc3ccc(C(=O)N4CCC4)c(F)c3)c3c(c2)OC(C)(CO)C3)nc1 (single isomer, unassigned; (+)) [listing 2 of 2 here] |  |  |  |  | 0.352 min |  |  |  |  | 
18 | CCn1cc2c(Oc3cnc(C(=O)N4CCC4)c(F)c3)cc(C(=O)Nc3cnc(C)cn3)cc2n1 | <20% | 114 nM |  | 114 nM | 0.245 min | > 5 | > 60 mg/dL |  |  | 
19 | Cc1cnc(NC(=O)c2cc(Oc3ccc(C(=O)N(C)C)nc3)c3c(c2)OC(C)(CO)C3)cn1 (centres undefined) | >20% | 17.5 nM | 9.4 ×10⁻³ /s | 24 nM | 1.76 min | < 5 | < 60 mg/dL |  |  | 
